# Measured values published in patent US11590117B2, “Treatment of a hematologic malignancy with 2-(4-chlorophenyl)-n-((2-(2,6-dioxopiperidin-3-yl)-1-oxoisoindolin-5-yl)methyl)-2,2-difluoroacetamide” (priority 2016, dated 2023).
# What was measured:
# [1] = system: THLE-2; assay: CellTiter-Glo (CTG) cell proliferation assay, 72 hours, counter-screen; type: cell-based, human
# Description: (§1) Preparation of Solutions of Test Article: Compounds were plated into black 384-well plates (Corning Inc.) to a final DMSO volume of 0.1% assuming a maximal volume of 50 μL. A 10-point dose response starting at 10 μM with a 1:3 dilution was printed in duplicate by acoustic dispense using the EDC ATS-100 platform.
# (§2) Cell Proliferation Assays: The effect of Compound 1 on the proliferation/viability of the hematological cell lines (Table 1 Table, Table 2 and Table 3), THLE-2, or PBMCs was assessed after 72 hours incubation using CTG (Promega), according to manufacturer's instructions. Hematological cell lines were dispensed into compound plates by a Multidrop™ Combi Reagent Dispenser (Thermo Scientific, Waltham, Mass.) at a concentration of 0.1 to 0.3×10^6 cells per mL in a 50 μL total volume. THLE-2 cells were seeded out at 1000 cells per well in 50 μL volume and incubated for 72 hours. At 72 hours, 25 μL per well of CTG was dispensed by a Multidrop™ Combi Reagent Dispenser and adenosine triphosphate (ATP) release by viable cells was measured as relative luminescence units after 30 minutes using the Envision platform.
# In order to calculate the therapeutic window for Compound 1, the compound was counter-screened against the immortalized (but non-tumorigenic) human hepatocyte-derived cell line THLE-2 (Pfeifer, et al, Proc Natl Acad Sci USA 1993 90(11):5123-5127) and against primary human PBMCs. […] The Compound 1 therapeutic window for the 10 sensitive AML cell lines as compared to THLE-2 cells ranged from 4.1 (KG-1a) to 57 (HNT-34) (method 1) or from 5.7 (KG-1a) to 79.5 (HNT-34) (method 2); the Compound 1 therapeutic window as compared to PBMCs ranged from 2.6 (KG-1a) to 36 (HNT-34)), or from 1.5 (KG-1a) to 21 (HNT-34) (Table 6).
# Cultures of 11 different AML cell lines were incubated 72 hours with Compound 1 at concentrations of 0.5 nM to 10 μM. Proliferation was assessed using the CellTitre-Glo® assay. Results for cultures incubated with Compound 1 were normalized to results for control cultures for each cell line. […]
# [2] = system: Bone marrow mononuclear cells (BMMCs) from high risk MDS patients; assay: MDS intracellular flow cytometry, active Caspase 3; type: cell-based, human; details: 24 hours exposure
# Description: Methods. The effect of Compound 1 on high risk MDS samples was measured in an in vitro liquid culture as well as by colony assays in order to better define its effect on stem/progenitor cells. Bone marrow mononuclear cells (BMMCs) from high risk MDS patients were cultured in vitro in CellGro medium (GellGenix) supplemented with hLDL (40 μg/mL), SCF (50 ng/mL), FLT3 […] (50 ng/mL), IL-3 (10 ng/mL), IL-6 (25 ng/mL) and TPO (100 ng/mL), all from Peprotech. During culture, cells were exposed to different concentrations of Compound 1 (37, 111, 333 and 1000 nM) or DMSO control. After 24 hours, cells were washed twice to remove compound and maintained in culture up to one week, performing viable cell counting on days 1, 3 and 7. Just after compound washout, […] per condition were collected for colony forming assays and another […] were stained for intracellular flow cytometry.
# For intracellular flow cytometry measurement of apoptosis cells were fixed in 1.6% paraformaldehyde, permeabilized in ice cold methanol and stained using a FITC-conjugated anti-active Caspase 3 antibody (Becton Dickinson). A FACSCanto II flow cytometer (Becton Dickinson) was used for flow cytometry data acquisition. Flow cytometry standard (FCS) files were analyzed using Infinicyt software (Cytognos).
# [3] = system: Chronic Lymphocytic Leukemia patient samples; assay: CellTiter-Glo (CTG) cell proliferation assay, 72 hours; type: cell-based; details: Homo sapiens, Chronic Lymphocytic Leukemia patient samples (n = 3)
# Description: Table, Table 2 and Table 3. Human normal donor PBMCs and chronic lymphoid leukemia (CLL) patient blasts were obtained from AllCells, LLC (Alameda, Calif.).
# as §1, §2
# [4] = system: HR-MDS, sAML and normal bone marrow progenitors; assay: SL/M2 stromal co-culture colony replating assay (cell self-renewal assay); type: cell-based, human; details: 1 nM and 10 nM; sAML and HR-MDS progenitors more than normal bone marrow progenitors
# Description: Compound 1 at the indicated concentrations was added at the initiation of co-culture, with DMSO as a vehicle control. Colonies were scored to determine the effect of Compound 1 on cell survival (FIG. 36A) and self-renewal (FIG. 36B). ***, p<0.001, AML vs normal bone marrow controls treated with 1 nM of compound 1 (one-way ANOVA). **, p=0.01, AML vs normal bone marrow controls treated with 10 nM of Compound 1 (one-way ANOVA). Error bars represent mean values SD.
# Methods. Mouse stromal cells SL/M2 stably expressing human interleukin-3 (IL-3), granulocyte colony stimulating factor (G-CSF) and stem cell factor (SCF) were cultured to confluency, followed by gamma-irradiation. Human CD34+ bone marrow cells isolated from 3 high-risk MDS patients (HR-MDS), 3 secondary AML patients arising from MDS (sAML) and 5 age-matched healthy donors were then cultured with inactivated SL/M2 cells for a week. Next, human progenitor cells were quantified by FACS and cells were plated in methylcellulose for colony forming assay (cell survival assay). After two weeks, 20-25 colonies were picked from each condition, resuspended and replated in fresh methylcellulose for 2nd round of colony forming assay (cell self-renewal assay).
# [5] = THLE-2 normal cells, 0.1 nM to 100 μM
structure (smiles),measurement,setting,value
"O=C1CCC(N2Cc3cc(CNC(=O)C(F)(F)c4ccc(Cl)cc4)ccc3C2=O)C(=O)N1 (stereo not drawn) [Compound 1, 2-(4-chlorophenyl)-N-((2-(2,6-dioxopiperidin-3-yl)-1-oxoisoindolin-5-yl)methyl)-2,2-difluoroacetamide]",IC50,"[1]; Homo sapiens, THLE-2, 72 h, THLE-2 non-tumorigenic human hepatocyte-derived cell line, 72 hours, read-out: antiproliferative IC50",10 µM
same,AUC Method 1,[1]; [5],393.0 arbitrary units
same,AUC Method 2,[1]; [5],549.1 arbitrary units
same,caspase 3 activation,[2],induction of apoptosis
same,IC50,[3],0.01 µM
same,colony replating (self-renewal),[4],significantly reduced the self-renewal
